# Values of other authors, collected in patent publication US20150272967A1, “EXTREMELY HIGH LOADING DOSE” (priority 2013, published 2015).
# Experiments:
# breast cancer patients = conditions: modest low doses
# prostate cancer patients = conditions: dose significantly lower than that of the invention
molecule,measurement,setting,value
Vitamin D,disease free survival,breast cancer patients; 25.5 without supplementation,32.6 months
same,median overall survival,breast cancer patients; 32.8 without supplementation,43.8 months
"C=C1CC[C@H](O)C/C1=C/C=C1\CCC[C@]2(C)[C@@H]([C@H](C)CCCC(C)C)CC[C@@H]12 [Vitamin D3, cholecalciferol]",patients showing improvement (significant decrease in the number of positive cancer biopsy samples),prostate cancer patients,55%
